Source: PMC12449371, “The role of unsaturated fatty acids in modulating human butyrylcholinesterase activity: insights from kinetics and molecular docking” (Naunyn-Schmiedeberg's Archives of Pharmacology, 2025)
pKi: −log10 of the molar value. Entries after “also recorded” stand apart in the source; their conditions may differ. Read-outs that look alike come from different tables or passages of the source.

Columns and labels:
human BChE [1] = molecular target: T1, human BChE (Homo sapiens, UniProt P06276); assay: IC50 determination, modified 96-microtiter plate Ellman assay; format: biochemical; details: purified human serum BChE, 0.5 mM BTCh, 50 mM MOPS pH 7.4, 37 °C, Table 2 head prints no unit, µM
T1 construct: purification process was performed using 0 Rh (−) human blood serum from the Hacettepe Hospital blood bank; from tissue; host or cells: human blood serum (0 Rh(−), Hacettepe Hospital blood bank)
Protocol: (§1) The butyrylcholinesterase purification process was performed using 0 Rh (−) human blood serum from the Hacettepe Hospital blood bank, as described in a previous study (Gok et al. [2023]). BChE was subjected to acid dialysis followed by DEAE-Trisacryl M ion-exchange chromatography under pH 5.5 conditions. The pooled active fractions from Trisacryl M chromatography were dialyzed to adjust neutral buffer pH 7.4 and transferred to procainamide-Sepharose 4B chromatography. The BChE enzyme was bound to the procainamide column, which was then washed with 25 mM phosphate buffer at pH 7.4. The BChE was eluted from the column with a linear gradient of 0.2–0.8 M NaCl in 25 mM potassium phosphate buffer pH 7.4, followed by dialysis. […] Silver staining (Blum et al. [1987]) and the Karnovsky-Roots technique (Karnovsky and Roots [1964]) were used to visualize gels that had been labeled for activity and protein, […].
The IC₅₀ was determined using the modified 96-microtiter plate Ellman assay (George and Abernethy [1983]), using a total volume of 200 µL. […] The unsaturated fatty acids used for the test were dissolved in DMSO and then the working solutions were sonicated in a reaction buffer for 30 s, followed by a further 30 s. The fatty acid solutions with different final concentrations of 10–7500 µM were added to the wells. Subsequently, 50 mM MOPS buffer (pH 7.4) and 0.7 µg of purified BChE enzyme were added. The plate was incubated in the absence of light with a plate shaker at 37 °C for 10 min. Measurements were initiated by adding a final concentration of 0.25 mM DTNB (ε412, DTNB = 14.2 mM^−1 cm^−1) and 0.5 mM butyrylthiocholine (BTCh). The mixture of 1% DMSO without the BTCh substrate was used as the reagent blank. The absorbance readings were recorded at a wavelength of 412 nm for a period of 10 min using the Spectramax M2 microplate reader (Molecular Devices, USA). The activity without fatty acids was set as 100% control, while all activities with fatty acids were compared to this control. IC₅₀ values were determined using GraphPad Prism 8.4 software by plotting the percentage of BChE activity against the fatty acid concentration. Each test was performed at least four times and average values were reported as final results.

human BChE [2] = molecular target: T1, human BChE; assay: Inhibition kinetics, Ellman method with varying BTCh substrate; format: biochemical; details: for pKi: read-out: Ki; for Inhibition type: Lineweaver-Burk analysis, BTCh as substrate
Protocol: as §1
Evaluation of BChE activity was performed according to the Ellman method (George and Abernethy [1983]) with a minor modification in a 96-well microtiter plate assay. The fatty acids oleic acid, linoleic acid, α-LA, and arachidonic acid used in the assay were dissolved in DMSO. The working solutions were then sonicated in a reaction buffer for 30 + 30 s. Based on previous experimental results, three concentrations of oleic acid, linoleic acid, α-LA, and arachidonic acid were chosen: 200–750 µM, 500–2500 µM, 50–250 µM, and 100–300 µM, respectively. This was to clarify the inhibitory mechanisms for the fatty acids. In the presence of these fatty acids, BChE activity was measured at eight progressively lower concentrations (1.0–0.05 mM) of the BTCh substrate. The experimental procedure involved incubation of a solution of the fatty acid with BChE enzyme (0.7 µg), 50 mM MOPS buffer pH 7.4, and 0.25 mM DTNB in the absence of light at 37 °C for 5 min. The reaction was initiated and monitored for 10 min at 412 nm in kinetic mode after addition of the substrate. The identical solution was run with buffer instead of fatty acids as a control and all assays were performed in triplicate. Enzyme activity was expressed in milliunits (mU), where 1 mU corresponds to the hydrolysis of 1 nmol of BTCh per minute at room temperature.
Enzyme kinetics data was analyzed and graphs were plotted using GraphPad Prism 8.42. The kinetic parameters and the enzyme-substrate relationship were fitted to the Michaelis-Menten model using nonlinear regression.

AChE = tested on: AChE; set-up: method as in Akay et al. [2023]; details: ref Akay et al. [2023]; cited from earlier work
[3] = BTCh as substrate (1.0-0.05 mM), three fatty acid concentrations

T1 sequence (P06276 29-602): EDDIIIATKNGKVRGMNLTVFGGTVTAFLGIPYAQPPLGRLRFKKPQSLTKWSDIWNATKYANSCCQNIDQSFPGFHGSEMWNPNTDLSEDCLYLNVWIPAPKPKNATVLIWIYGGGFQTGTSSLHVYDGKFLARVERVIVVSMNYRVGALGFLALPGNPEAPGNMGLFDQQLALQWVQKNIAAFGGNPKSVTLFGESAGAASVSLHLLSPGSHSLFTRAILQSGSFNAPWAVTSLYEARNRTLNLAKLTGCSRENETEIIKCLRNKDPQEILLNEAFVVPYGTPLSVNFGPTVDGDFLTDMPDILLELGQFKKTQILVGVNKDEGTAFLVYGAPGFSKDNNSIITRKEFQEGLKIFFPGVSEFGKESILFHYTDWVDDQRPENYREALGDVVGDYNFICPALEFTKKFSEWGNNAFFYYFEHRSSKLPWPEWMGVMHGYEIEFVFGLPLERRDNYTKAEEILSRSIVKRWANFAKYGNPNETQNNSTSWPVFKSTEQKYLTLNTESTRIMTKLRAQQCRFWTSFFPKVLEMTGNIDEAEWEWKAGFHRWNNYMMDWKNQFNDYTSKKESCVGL

With `CCCCC/C=C\C/C=C\C/C=C\C/C=C\CCCC(=O)O` [Arachidonic acid, arachidonic acid] the IC50 (human BChE [1]) was “strongest inhibitory activity”, the IC50 (human BChE [1]; read-out: IC50) was 611 µM and the pKi (human BChE [2]; [3]) was 3.33. For the same compound, the Inhibition type (human BChE [2]; listed as AA) was “uncompetitive type inhibition”, the Inhibition type (human BChE [2]; listed as Arachidonic acid (20:4)) was “Uncompetitive” and the “inhibitory effect on AChE (IC50), rank in words” value (AChE) was “strongest inhibitory effect”.
For `CCCCC/C=C\C/C=C\CCCCCCCC(=O)O` [Linoleic acid, linoleic acid], the IC50 (human BChE [1]; read-out: IC50) was 5910 µM, the pKi (human BChE [2]; [3]) was 2.85 and the Inhibition type (human BChE [2]) was “Noncompetitive inhibition”. The Inhibition type (human BChE [2]; listed as LA) was “noncompetitive inhibition type” and the Inhibition type (human BChE [2]; listed as Linoleic acid (18:2)) was “Noncompetitive”.
With `CCCCCCCC/C=C\CCCCCCCC(=O)O` [Oleic acid, oleic acid] the IC50 (human BChE [1]; read-out: IC50) was 2370 µM, the Ki (human BChE [2]; [3]) was “lowest Ki value” and the pKi (human BChE [2]; [3]) was 3.49. For the same compound, the Inhibition type (human BChE [2]) was “noncompetitively” and the Inhibition type (human BChE [2]; listed as Oleic acid (18:1)) was “Noncompetitive”.
For `CCCCCCCCCCCCCCCCCCCC(=O)O` [eicosanoic acid], the “AChE inhibition in words” value (AChE) is given as “strongly inhibits”.
For `CC/C=C\C/C=C\C/C=C\CCCCCCCC(=O)O` [α-Linolenic acid, alpha-linolenic acid], the IC50 (human BChE [1]; read-out: IC50) was 5810 µM, the pKi (human BChE [2]; [3]) was 3.18 and the Inhibition type (human BChE [2]; listed as α-LA) was “noncompetitively; also recorded: noncompetitive inhibition type”. For the same compound, the Inhibition type (human BChE [2]; listed as α-Linolenic acid (18:3)) was “Noncompetitive” and the “noncompetitive inhibitory constants (Ki) on AChE, rank in words” value (AChE) was “lowest Ki”.
